Results taken from US20130072523A1, “ANALOGUES FOR THE TREATMENT OR PREVENTION OF FLAVIVIRUS INFECTIONS” (VERTEX PHARMACEUTICALS INCORPORATED, priority 2009, published 2013).

Legend:
[1] = tested on: sub-genomic HCV replicon of genotype 1a; experiment: Activity determination using the ELISA and the sub-genomic replicon 1a cell line (NS5A protein level, W11.8 cells); format: cell-based; conditions: Hepatitis C virus, W11.8, 96 h, drug treatment for four days
Text: Activity Determination Using the ELISA and the Sub-Genomic Replicon 1a Cell Line
The cell line W11.8 containing the sub-genomic HCV replicon of genotype 1a is used to determine the potency of the drugs. The RNA replication in presence of different drug concentrations is indirectly measured in this cell line by the level of NS5A protein content upon drug treatment for four days. It is shown that the level of the NS5A protein correlates well with the level of HCV RNA in the replicon cell line. Cells are split twice a week in order to keep the confluence state below 85% of the culture flask surface area. The culture media used for cell passaging consists of DMEM-10% foetal bovine serum with 100 UI/mL penicillin, 100 μg/mL streptomycin, 2 mM glutamine, 1 mM sodium pyruvate, non-essential amino acids (1×) and 600 μg/mL of G418 final concentrations. Monolayer of the W11.8 cells is trypsinized and cells are counted. Cells are diluted at 50,000 cells/mL with complete DMEM without G418, then approximately 5,000 viable cells (100 μL) are plated per well in a white opaque 96-well microtiter plate. After an incubation period of 2-4 hours at 37° C. in a 5% CO2 incubator, compounds are added at various concentrations. Drugs are resuspended in DMSO at a stock concentration of 10 mM. Then, drugs are serially diluted at twice the final concentration in the same medium. One volume (100 μL) of each drug dilution is then added to each well that contains cells.
A control compound is used as an internal standard for each plate assay. Sixteen wells are used as control (0% inhibition) without drug. […] Values from 100% inhibited wells were averaged and used as the background value. Cells are further incubated for four days at 37° C. in a 5% CO2 incubator. Following the incubation time of four days, the media is removed and wells are washed once with 150 μL of PBS at room temperature for five minutes. Cells are then fixed for five minutes using 150 μL per well of cold (−20° C.) fixative solution (50% methanol/50% acetone mix). Cells are then washed twice with 150 μL of PBS (phosphate buffered saline) per well, following the addition of 150 μL of blocking solution, cells are incubated for one hour at 37° C. to block non-specific sites. The blocking solution is removed and cells are washed twice with 150 μL of PBS per well and once with 150 μL of PBSTS solution (PBS/0.1% Triton X-100/0.02% SDS) per well. Then, 50 μL of mouse monoclonal anti-NS5A antibody (Santa Cruz, Cat. No. sc-52417) is added in each well, diluted 1/1,000 in the blocking solution and incubated at 4° C. overnight. Next day, media is removed and plates are washed five times with 150 μL of PBS per well with five-minute incubations at room temperature. Then 50 μL per well of peroxidase-conjugated donkey anti-mouse antibody (Jackson Immunoresearch, Cat. No. 715-036-150) diluted 1/10,000 in the blocking solution is added and incubated at room temperature for three hours on a shaker (500 rpm). Plates are washed four times with 150 μL of PBSTS solution per well and once with 150 μL of PBS. Then, substrate solution (100 μl, SuperSignal ELISA Pico Chemiluminescent Substrate, Fisher Cat. No. 37069) is added in each well and plates are incubated 60 minutes at room temperature prior to reading the luminescence (relative light units) on the Analyst HT plate reader. The percentage of inhibition at each drug concentration tested (in duplicate) is calculated. […]

[2] = tested on: HCV 1b genotype; experiment: Cell-based luciferase reporter HCV (Ib) RNA replication assay (Huh-ET replicon cells); conditions: Hepatitis C virus, 96 h; HCV 1b genotype replicon, 4 days incubation, luciferase readout
Text: Cell-Based Luciferase Reporter HCV (Ib) RNA Replication Assay Cell Culture
Replicon cell lines Huh-5.2 are derived from the Huh-7 hepatocarcinoma cell line are maintained in culture as generally described in Krieger, N; Lohmann, V; Bartenschlager, R. Enhancement of hepatitis C virus RNA replication by cell culture-adaptive mutations. J. Virol. 2001, 75, 4614-4624. The Huh-5.2 cells contain the highly cell culture-adapted replicon I389 Luc-ubi-neo/NS3-375.1 construct that carries, in addition to the neomycin gene, an integrated copy to the firefly luciferase gene (Krieger, N; Lohmann, V; Bartenschlager, R. Enhancement of hepatitis C virus RNA replication by cell culture-adaptive mutations. J. Virol. 2001, 75, 4614-4624). This cell line allows measurement of HCV RNA replication and translation by measuring luciferase activity. It has been previously shown that the luciferase activity tightly follows the replicon RNA level in these cells (Krieger, N; Lohmann, V; Bartenschlager, R. Enhancement of hepatitis C virus RNA replication by cell culture-adaptive mutations. J. Virol. 2001, 75, 4614-4624). The Huh-ET cell line has the same features as those mentioned for Huh-5.2 cell line, except that ET cells are more robust and contain an adaptative mutation in the HCV NS4B gene instead of NS5A. Both cell lines are maintained in cultures at a sub-confluent level (<85%) as the level of replicon RNA is highest in actively proliferating cells. The culture media used for cell passaging consist of DMEM (Gibco BRL Laboratories, Mississauga, ON, Canada) supplemented with 10% foetal bovine serum with 1% penicilin/streptomycin, 1% glutamine, 1% sodium pyruvate, 1% non-essential amino acids, and 180 μg/ml of G418 final concentration. Cells are incubated at 37° C., in an atmosphere of 5% CO2 and passaged twice a week to maintain sub-confluence.
Approximately 3000 viable Huh-ET cells (100 μl) are plated per well in a white opaque 96-well microtiter plate. The cell culture media used for the assay is the same as described above except that it contains no G418 and no phenol red. After an incubation period of 3-4 hours at 37° C. in a 5% CO2 incubator, compounds (100 μl) are added at various concentrations. Cells are then further incubated for 4 days at 37° C. in a 5% CO2 incubator. Thereafter, the culture media is removed and cells are lysed by the addition of 95 μL of the luciferase buffer (luciferin substrate in buffered detergent). Cell lysates are incubated at room temperature and protected from direct light for at least 10 minutes. Plates are read for luciferase counts using a luminometer (Wallac MicroBeta Trilux, Perkin Elmer™, MA, USA).
The 50% inhibitory concentrations (IC50s) for inhibitory effect are determined from dose response curves using eleven concentrations per compound in duplicate. Curves are fitted to data points using nonlinear regression analysis, and IC50s are interpolated from the resulting curve using GraphPad Prism software, version 2.0 (GraphPad Software Inc., San Diego, Calif., USA).
EC50 ranges are presented in micromolar as follows: μM+++<=0.005<++<=5.0<+.

Row | SMILES | IC50 [1] [pM] | IC50 [2] [pM]
1 | COC(=O)N[C@H](C(=O)N1[C@@H](C)CC[C@H]1c1ncc(C#Cc2ccc(C#Cc3cnc([C@@H]4CC[C@H](C)N4C(=O)[C@@H](NC(=O)OC)C(C)C)[nH]3)cc2)[nH]1)C(C)C [drawing 272] | 240 | 
2 | COC(=O)N[C@H](C(=O)N1CCC[C@H]1c1ncc(-c2ccc(-c3ccc(-c4cnc([C@@H]5CCCN5C(=O)[C@@H](NC(=O)OC)C(C)C)[nH]4)cc3)cc2)[nH]1)C(C)C | 50 | 
3 | COC(=O)N[C@H](C(=O)N1CCC[C@H]1c1ncc(C#Cc2ccc(C#Cc3cnc([C@@H]4CCCN4C(=O)[C@@H](NC(=O)OC)C(C)C)[nH]3)cc2)[nH]1)C(C)C | 4800 | 
4 | COC(=O)N[C@H](C(=O)N1C[C@@H](C)C[C@H]1c1ncc(-c2ccc(-c3ccc(-c4cnc([C@@H]5C[C@H](C)CN5C(=O)[C@@H](NC(=O)OC)C(C)C)[nH]4)cc3)cc2)[nH]1)C(C)C [Compound 1] | 17 | ≤ 5000
5 | COC(=O)N[C@H](C(=O)N1C[C@@H](C)C[C@H]1c1ncc(C#Cc2ccc(C#Cc3cnc([C@@H]4C[C@H](C)CN4C(=O)[C@@H](NC(=O)OC)C(C)C)[nH]3)cc2)[nH]1)C(C)C [Compound 4] | 55 | ≤ 5000
